# Experimental data reported in PubChem BioAssay (NCI).
#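 Compound exposure: 48 hours, 5 concentrations, 96-well plates. TGI is the concentration that stops growth completely.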
# Test system: P388/ADR leukemia
# Assay: NCI tumour cell line growth inhibition, 48 h
row,Structure (SMILES),TGI
1,COc1cc(C2c3cc4c(cc3[C@@H](Nc3ccc(C#N)cc3)C3COC(=O)[C@H]23)OCO4)cc(OC)c1O (some centres not stated),2110 nM
2,CNC(=O)OCc1nc(SC2CCCCO2)n(C)c1COC(=O)NC (configuration not stated),> 100000 nM
